Results on seven compounds are retold here after patent US20140057915A1, “KINASE INHIBITORS” (TOPIVERT PHARMA LIMITED, priority 2012, published 2014).

Like-named read-outs stand apart in the source and are kept apart here.

The term IC50 denotes the concentration that gives 50% inhibition.

Data set [1] concerns the target cSrc (Homo sapiens, UniProt P12931). Put plainly: c-Src enzyme inhibition (FRET). In kind it is biochemical. The essentials:
(§1)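 Kinase activity is measured on a dual-labelled synthetic peptide by FRET. ATP is supplied as an 800 μM solution for c-Src and a 60 μM solution for Syk. Compound is tested at four added concentrations, 4 to 0.004 μg/mL.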

Data set [2] relates to PBMC cells. Put plainly: Cell mitosis assay. In kind it is cell-based. Conditions: Homo sapiens, read-out: % Inhibition of mitosis in PBMC cells at 5 μg/mL. An outline of the steps:
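Healthy-donor PBMCs (3 million cells per sample) stimulated with 2% PHA for 48 hr, then exposed 20 hr to varying compound concentrations. Demecolcine (0.1 μg/mL) added 2 hr before collection to arrest cells in metaphase; read by flow cytometry gated on lymphocytes.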

For data set [3], the target named is T1, GSK3α (Homo sapiens, UniProt P49840). Put plainly: GSK 3α enzyme inhibition (FRET), Method 2. Format: biochemical. Conditions: Table 4a2, different laboratory.
T1 sequence (P49840 whole entry): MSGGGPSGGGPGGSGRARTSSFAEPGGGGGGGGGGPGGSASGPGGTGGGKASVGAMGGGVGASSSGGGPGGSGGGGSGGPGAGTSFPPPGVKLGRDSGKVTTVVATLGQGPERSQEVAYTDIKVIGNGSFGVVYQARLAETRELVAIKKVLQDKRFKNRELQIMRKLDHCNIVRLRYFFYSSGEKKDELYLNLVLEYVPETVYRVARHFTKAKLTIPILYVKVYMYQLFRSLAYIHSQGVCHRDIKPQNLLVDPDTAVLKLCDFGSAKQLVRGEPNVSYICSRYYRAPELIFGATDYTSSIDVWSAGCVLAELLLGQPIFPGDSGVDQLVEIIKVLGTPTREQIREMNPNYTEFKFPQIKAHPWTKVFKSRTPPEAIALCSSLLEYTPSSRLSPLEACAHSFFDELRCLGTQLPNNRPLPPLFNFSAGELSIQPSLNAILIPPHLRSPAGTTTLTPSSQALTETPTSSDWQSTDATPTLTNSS
The target of data set [4] is T1, GSK3α. Description: GSK 3α enzyme inhibition (FRET), Method 1. Format: biochemical. Conditions: Table 4a1. The essentials: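 Inhibition is scored from phosphorylation of a dual-labelled synthetic peptide, measured by FRET after protease cleavage of unphosphorylated substrate. Incubations are 2 hr compound with enzyme, then 1 hr kinase reaction.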
Data set [5] deals with d-U937 cells. Put plainly: Cell viability: MTT assay. Format: cell-based, human. Conditions: 1 μg/mL. An outline of the steps: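 MTT reduction (1 h, DMSO solubilisation, A550) measured after compound treatment at 1 or 10 μg/mL of differentiated U937 cells for 4 h (5% FCS RPMI1640) or 24 h (10% FCS). Percentage viability loss computed relative to 0.5% DMSO vehicle, with increases tabulated as negative values.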
On the technique in general: Tetrazolium dyes change colour on reduction, which living cells bring about.

The test system of data set [6] is TNFα release, d-U937 cells. Description: LPS-induced TNFα release in d-U937 cells. In kind it is cell-based. Conditions: Homo sapiens, dU937; for IC50: Table 4c2, different laboratory, read-out: IC50 Values for Inhibition of Cytokine Release, dU937 cells, TNFα; for EC50: relative to 10 μg/mL BIRB796, Table 4c1, read-out: LPS Induced Release of Cytokine in d-U937 Cells, TNFα REC50. An outline of the steps: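 Sandwich ELISA quantifies cytokine in supernatants after 4 hr LPS challenge (0.1 μg/mL) of PMA-differentiated (100 ng/mL, 48–72 hr) U937 macrophages given compound 2 hr beforehand. REC50 derived from concentration-response curve, inhibition calculated relative to vehicle.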

Data set [7] has as its system IL-8 release, d-U937 cells. Put plainly: LPS-induced IL-8 release in d-U937 cells. Format: cell-based. Conditions: Homo sapiens, dU937. The essentials: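 IL-8 release after a 4 hr challenge with LPS (0.1 μg/mL, E. coli 0111:B4) following a 2 hr compound pretreatment. Cells were human U937 monocytes differentiated to macrophage-type with PMA 100 ng/mL for 48–72 hr. Relative 50% effective concentration derived from concentration–response data.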

The target of data set [8] is Syk (Homo sapiens, UniProt P43405). Put plainly: Syk enzyme inhibition (FRET). Format: biochemical. The essentials:
as §1

Data set [9] relates to HRV16 in MRC5 cells. Description: HRV16 induced CPE in MRC5 cells. Format: cell-based. Conditions: Human rhinovirus sp., HRV-16. The protocol: (j) Assessment of HRV16 Induced CPE in MRC5 Cells
MRC-5 cells are infected with HRV16 at an MOI of 1n DMEM containing 5% FCS and 1.5 mM magnesium chloride, followed by incubation for 1 hr at 33° C. to promote adsorption. The supernatants are aspirated, and then fresh media added followed by incubation for 4 days. Where appropriate, cells are pre-incubated with compound or DMSO for 2 hr, and the compounds and DMSO added again after washout of the virus.
After washing, 1% SDS in distilled water (100 μL) is added to each well, and the plates are shaken lightly for 1-2 hr prior to reading the absorbance at 660 nm. The percentage inhibition for each well is calculated. The IC50 value is calculated from the concentration-response curve generated by the serial dilutions of the test compounds.

Where [10] appears, read: Table 4a2, different laboratory.
The mark [11] stands for this setting: Table 4c1, read-out: LPS Induced Release of Cytokine in d-U937 Cells, IL-8 IC50.
[12] abbreviates: Table 4c2, different laboratory, read-out: IC50 Values for Inhibition of Cytokine Release, dU937 cells, IL-8.

Chain of cSrc (P12931 whole entry): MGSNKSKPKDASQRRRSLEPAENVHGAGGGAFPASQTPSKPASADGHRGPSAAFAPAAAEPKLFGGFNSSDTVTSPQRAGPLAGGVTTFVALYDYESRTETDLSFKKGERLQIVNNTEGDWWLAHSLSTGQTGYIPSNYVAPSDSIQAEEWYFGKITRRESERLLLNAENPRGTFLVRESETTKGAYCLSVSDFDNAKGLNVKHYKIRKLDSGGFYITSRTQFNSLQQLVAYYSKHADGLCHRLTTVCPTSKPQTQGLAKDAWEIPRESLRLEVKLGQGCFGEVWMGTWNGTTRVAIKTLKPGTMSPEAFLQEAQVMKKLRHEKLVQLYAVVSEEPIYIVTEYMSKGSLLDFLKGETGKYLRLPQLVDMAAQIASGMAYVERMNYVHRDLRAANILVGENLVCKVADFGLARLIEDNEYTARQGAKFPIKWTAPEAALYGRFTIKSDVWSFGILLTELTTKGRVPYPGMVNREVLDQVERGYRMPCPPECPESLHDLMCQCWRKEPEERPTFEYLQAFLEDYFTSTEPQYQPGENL

In the case of `Cc1ccc(-n2nc(C(C)C)cc2NC(=O)Nc2ccc(Oc3ccnc(Nc4cc(C(=O)NCCN5CCOCC5)cc(C(F)(F)F)c4)n3)c3ccccc23)cc1` [Example 7, 3-((4-((4-(3-(3-isopropyl-1-(p-tolyl)-1H-pyrazol-5-yl)ureido)naphthalen-1-yl)oxy)pyrimidin-2-yl)amino)-N-(2-morpholinoethyl)-5-(trifluoromethyl)benzamide], the half-maximal inhibitory concentration (IC50) in [1] (Table 4a1) was 13 nM; in data set [1] (setting [10]), 27 nM; in [3], 12.1 µM; in data set [4], more than 12.6 µM; in [6], 2.7 nM; in data set [7] (setting [11]), 1.5 nM. Moreover, the inhibition at 5 µg/mL in data set [2] was 20.6%. In addition, the “Cell viability at time point in d-U937 cells, 4 h” value in data set [5] was “−ve (−ve and +ve indicate that the value is below and above respectively, the no significant effect threshold, defined as 30% inhibition at 1 μg/mL at the time point indicated)”. Further, the “Cell viability at time point in d-U937 cells, 24 h” value (“Cell viability at time point … 24 h” below) in data set [5] is “−ve (−ve and +ve indicate that the value is below and above respectively, the no significant effect threshold, defined as 30% inhibition at 1 μg/mL at the time point indicated)”. For the same compound, in [6], the EC50 came to 0.2 nM.
In the case of `COCCNC(=O)c1cc(Nc2nccc(Oc3ccc(NC(=O)Nc4cc(C(C)C)nn4-c4ccc(OC)cc4)c4ccccc34)n2)cc(OC)c1` [Example 11, 3-((4-((4-(3-(3-Isopropyl-1-(4-methoxyphenyl)-1H-pyrazol-5-yl)ureido)naphthalen-1-yl)oxy)pyrimidin-2-yl)amino)-5-methoxy-N-(2-methoxyethyl)benzamide], the half-maximal inhibitory concentration (IC50) in data set [1] (Table 4a1) was 8 nM; in data set [1] (setting [10]), 15 nM; in data set [8] (Table 4a1) it was 75 nM; in [8] (setting [10]) it was 126 nM; in [3], 9.95 µM; in data set [4] it was more than 14 µM. Also, the results for the IC50 in [6] and in data set [7] (setting [11]) were 0.3 nM and 1.3 nM, respectively. Also, in [2], the inhibition at 5 µg/mL stood at 50.7%. The “Cell viability at time point in d-U937 cells, 4 h” value in [5] is “−ve (−ve and +ve indicate that the value is below and above respectively, the no significant effect threshold, defined as 30% inhibition at 1 μg/mL at the time point indicated)”. The “Cell viability at time point … 24 h” value in [5] was “−ve (−ve and +ve indicate that the value is below and above respectively, the no significant effect threshold, defined as 30% inhibition at 1 μg/mL at the time point indicated)”. The EC50 in data set [6] is 0.2 nM.
For the compound `COc1ccc(-n2nc(C3(C)COC3)cc2NC(=O)Nc2ccc(Oc3ccnc(Nc4cccc(C(=O)NCCN5CCOCC5)c4)n3)c3ccccc23)cc1` [Example 23, 3-((4-((4-(3-(1-(4-methoxyphenyl)-3-(3-methyloxetan-3-yl)-1H-pyrazol-5-yl)ureido)naphthalen-1-yl)oxy)pyrimidin-2-yl)amino)-N-(2-morpholinoethyl)benzamide], the 50% inhibitory concentration (IC50) in data set [1] (Table 4a1) is less than 1 nM; in data set [8] (Table 4a1), 203 nM; in data set [9], 22.3 nM; in data set [4], 2.99 µM; in data set [7] (setting [11]), 2.3 nM. In data set [2], the inhibition at 5 µg/mL is 35.6%. In addition, in data set [5], the “Cell viability at time point in d-U937 cells, 4 h” value was “−ve (−ve and +ve indicate that the value is below and above respectively, the no significant effect threshold, defined as 30% inhibition at 1 μg/mL at the time point indicated)”. In data set [5], the “Cell viability at time point … 24 h” value is “−ve (−ve and +ve indicate that the value is below and above respectively, the no significant effect threshold, defined as 30% inhibition at 1 μg/mL at the time point indicated)”. Also, the EC50 in [6] stood at 5.2 nM.
Regarding `C#Cc1cc(Nc2nccc(Oc3ccc(NC(=O)Nc4cc(C(C)C)nn4-c4ccc(C)cc4)c4ccccc34)n2)cc(C(=O)NCCN2CCOCC2)c1` [Example 46, 3-ethynyl-5-((4-((4-(3-(3-isopropyl-1-(p-tolyl)-1H-pyrazol-5-yl)ureido)naphthalen-1-yl)oxy)pyrimidin-2-yl)amino)-N-(2-morpholinoethyl)benzamide], the concentration for half-maximal inhibition (IC50) amounted to 14 nM in data set [1] (setting [10]); 22 nM in [8] (setting [10]); 11.3 µM in data set [3]; 1.1 nM in data set [6]; 2.4 nM in [7] (setting [12]). The inhibition at 5 µg/mL in data set [2] is -6.7%. Moreover, in data set [5], the “Cell viability at time point in d-U937 cells, 4 h” value was “−ve (−ve and +ve indicate that the value is below and above respectively, the no significant effect threshold, defined as 30% inhibition at 1 μg/mL at the time point indicated)”. For the same compound, the “Cell viability at time point … 24 h” value in data set [5] is “−ve (−ve and +ve indicate that the value is below and above respectively, the no significant effect threshold, defined as 30% inhibition at 1 μg/mL at the time point indicated)”.
Turning to `COc1cc(Nc2nccc(Oc3ccc(NC(=O)Nc4cc(C5CC5)nn4-c4ccc(C)cc4)c4ccccc34)n2)cc(C(=O)NCCN2CCOCC2)c1` [Example 50, 3-((4-((4-(3-(3-cyclopropyl-1-(p-tolyl)-1H-pyrazol-5-yl)ureido)naphthalen-1-yl)oxy)pyrimidin-2-yl)amino)-5-methoxy-N-(2-morpholinoethyl)benzamide], the IC50 was less than 1 nM in data set [1] (Table 4a1); 32 nM in data set [8] (Table 4a1); 6.8 nM in [9]; not below 13.3 µM in data set [3]; more than 13.3 µM in [4]; 8 nM in data set [7] (setting [11]). Moreover, in data set [5], the “Cell viability at time point in d-U937 cells, 4 h” value was “−ve (−ve and +ve indicate that the value is below and above respectively, the no significant effect threshold, defined as 30% inhibition at 1 μg/mL at the time point indicated)”. For the same compound, the “Cell viability at time point … 24 h” value in data set [5] was “−ve (−ve and +ve indicate that the value is below and above respectively, the no significant effect threshold, defined as 30% inhibition at 1 μg/mL at the time point indicated)”. The EC50 in [6] was 5.2 nM.
For the compound `C#Cc1cc(Nc2nccc(Oc3ccc(NC(=O)Nc4cc(C(C)(C)C)nn4-c4ccc(OC)cc4)c4ccccc34)n2)cc(C(=O)NCCN2CCOCC2)c1` [Example 77, 3-((4-((4-(3-(3-(tert-Butyl)-1-(4-methoxyphenyl)-1H-pyrazol-5-yl)ureido)-naphthalen-1-yl)oxy)pyrimidin-2-yl)amino)-5-ethynyl-N-(2-morpholinoethyl)benzamide], the IC50 in data set [1] (setting [10]) was found to be 12 nM; in data set [8] (setting [10]) it was 18 nM; in [3], 5.95 µM; in [6], 0.4 nM; in [7] (setting [12]), 0.9 nM. In addition, the inhibition at 5 µg/mL in [2] was -0.3%.
For `C#Cc1cc(Nc2nccc(Oc3ccc(NC(=O)Nc4cc(C(C)(C)C)nn4-c4ccc(N(C)C)cc4)c4ccccc34)n2)cc(C(=O)NCCN2CCOCC2)c1` [Example 80, 3-((4-((4-(3-(3-(tert-Butyl)-1-(4-(dimethylamino)phenyl)-1H-pyrazol-5-yl)ureido)naphthalen-1-yl)oxy)pyrimidin-2-yl)amino)-5-ethynyl-N-(2-morpholinoethyl)-benzamide], the IC50 in [1] (setting [10]) was 19 nM; in [8] (setting [10]) it was 25 nM; in [3] it was not below 12.6 µM; in data set [6] it was 0.3 nM; in data set [7] (setting [12]), 0.5 nM. Further, the inhibition at 5 µg/mL in [2] turned out to be 10.4%.
